# Patent US12371454B2, “Cyclic peptide compound having Kras inhibitory action” (priority 2019, dated 2025)
# Starred links: 1 amine or outer side, 2 acyl side, 3 side chain; linkers in the order of their positions; H or OH if unused. Positions of bridges follow the written chain, without caps; N, C: chain ends. Non-standard residues stand in square brackets, D forms with d. Residues, ends and D or L forms follow the SMILES beside them. *: point of attachment. hPhe(3,5-F2-4-CF3) = N[C@@H](CCc1cc(F)c(C(F)(F)F)c(F)c1)C(=O)O; hPhe(3-Cl-4-CF3) = N[C@@H](CCc1ccc(C(F)(F)F)c(Cl)c1)C(=O)O; X38 = CN([C@@H](Cc1cccc(OC(F)(F)F)c1)C(=O)[*:2])[*:1]; NMePhe(4-CF3) = CN[C@@H](Cc1ccc(C(F)(F)F)cc1)C(=O)O; X5 = CC(C)(C)NC(=O)COC[C@H](CC(=O)[*:1])N[*:2]; NMePhe(3-CN) = CN[C@@H](Cc1cccc(C#N)c1)C(=O)O; NMePhe(3-OMe) = CN[C@@H](Cc1cccc(OC)c1)C(=O)O; NMePhe(3-Br) = CN[C@@H](Cc1cccc(Br)c1)C(=O)O; NMePhe(4-Br) = CN[C@@H](Cc1ccc(Br)cc1)C(=O)O; NMePhe(4-Me) = CN[C@@H](Cc1ccc(C)cc1)C(=O)O; NMePhe(4-F) = CN[C@@H](Cc1ccc(F)cc1)C(=O)O; NMeGly(cPent) = CN[C@H](C(=O)O)C1CCCC1; NMe4Pal = CN[C@@H](Cc1ccncc1)C(=O)O; NMeCha = CN[C@@H](CC1CCCCC1)C(=O)O; NMeChg = CN[C@H](C(=O)O)C1CCCCC1; NMeI = CC[C@H](C)[C@H](NC)C(=O)O; dNMeF = CN[C@H](Cc1ccccc1)C(=O)O; NMeD = CN[C@@H](CC(=O)O)C(=O)O; NMeL = CN[C@@H](CC(C)C)C(=O)O; d(β3hP) = O=C(O)C[C@H]1CCCN1; NMeNva = CCC[C@H](NC)C(=O)O; Morpholide = C1CN(*)CCO1; NMeA = CN[C@@H](C)C(=O)O; Piperidide = C1CCN(*)CC1; Pyrrolidide = C1CCN(*)C1; Ac5c = NC1(C(=O)O)CCCC1; Aze = O=C(O)[C@@H]1CCN1; Sar = CNCC(=O)O
# Molecular target: T1, Kras and SOS1 (biotin-tagged human Kras loaded with GDP, His-tagged human SOS1) (Homo sapiens, UniProt P01116, G12D)
# T1 construct: made in house; host or cells: E. coli (stated for Kras only)
# T1 sequence (P01116 1-188 isoform P01116-2 G12D): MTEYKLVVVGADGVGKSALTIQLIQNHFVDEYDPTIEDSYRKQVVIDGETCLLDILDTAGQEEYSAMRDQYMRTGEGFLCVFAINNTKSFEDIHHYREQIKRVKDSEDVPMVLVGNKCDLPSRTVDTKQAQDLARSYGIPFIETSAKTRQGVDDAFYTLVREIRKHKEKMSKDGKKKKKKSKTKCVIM
# Experiment: Protein-protein interaction inhibition between Kras and SOS1 (KrasGl2D-SOS PPI) using AlphaScreen
# Assay type: binding
# Conditions: AlphaScreen; biotin-tagged human Kras loaded with GDP, His-tagged human SOS1; read-out: KRAS G12D-SOS PPI IC50
# Procedure, shortened: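 Binding between SOS1 and Kras is detected as bead-proximity luminescence: illuminate Ni-conjugated donors (680 nm), collect 520-620 nm emission from streptavidin-conjugated acceptors; Kras carries biotin and GDP loaded after purification, SOS1 carries a His tag.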
row,Compound,IC50
1,CC[C@H](C)[C@@H]1NC(=O)[C@H](CC(C)C)N(C)C(=O)C[C@@H](COCC(=O)NC(C)(C)C)NC(=O)[C@H]([C@@H](C)CC)N(C)C(=O)C2(CCCC2)NC(=O)[C@@H]2CCCN2C(=O)[C@H](CCc2ccc(C(F)(F)F)c(Cl)c2)NC(=O)CN(C)C(=O)[C@H](Cc2ccc(C)cc2)N(C)C(=O)[C@@H]2CCN2C(=O)[C@H](C)N(C)C1=O [Compound 1960] ([NMeL]I[NMeA][Aze][NMePhe(4-Me)][Sar][hPhe(3-Cl-4-CF3)]P[Ac5c][NMeI]; linker N-C via X5),0.056 µM
2,CC[C@H](C)[C@@H]1NC(=O)[C@H](CC(C)C)N(C)C(=O)C[C@@H](C(=O)N(C)C)N(C)C(=O)[C@H]([C@@H](C)CC)N(C)C(=O)C2(CCCC2)NC(=O)[C@H](Cc2ccncc2)N(C)C(=O)[C@H](CCc2ccc(C(F)(F)F)c(Cl)c2)NC(=O)CN(C)C(=O)[C@H](Cc2ccc(C)cc2)N(C)C(=O)[C@@H]2CCN2C(=O)[C@H](C)N(C)C1=O [Compound 1962] ([NMeL]I[NMeA][Aze][NMePhe(4-Me)][Sar][hPhe(3-Cl-4-CF3)][NMe4Pal][Ac5c][NMeI][NMeD]-NMe2; lactam N-11),0.0014 µM
3,CC[C@H](C)[C@@H]1NC(=O)[C@H](CC(C)C)N(C)C(=O)C[C@@H](C(=O)N(C)C)N(C)C(=O)[C@H]([C@@H](C)CC)N(C)C(=O)C2(CCCC2)NC(=O)[C@H](Cc2ccc(Br)cc2)N(C)C(=O)[C@H](CCc2ccc(C(F)(F)F)c(Cl)c2)NC(=O)CN(C)C(=O)[C@H](Cc2ccc(C)cc2)N(C)C(=O)[C@@H]2CCN2C(=O)[C@H](C)N(C)C1=O [Compound 1964] ([NMeL]I[NMeA][Aze][NMePhe(4-Me)][Sar][hPhe(3-Cl-4-CF3)][NMePhe(4-Br)][Ac5c][NMeI][NMeD]-NMe2; lactam N-11),0.036 µM
4,CC[C@H](C)[C@@H]1NC(=O)[C@H](CC(C)C)N(C)C(=O)C[C@@H](C(=O)N(C)C)N(C)C(=O)[C@H]([C@@H](C)CC)N(C)C(=O)C2(CCCC2)NC(=O)[C@H](Cc2cccc(OC(F)(F)F)c2)N(C)C(=O)[C@H](CCc2ccc(C(F)(F)F)c(Cl)c2)NC(=O)CN(C)C(=O)[C@H](Cc2ccc(C)cc2)N(C)C(=O)[C@@H]2CCN2C(=O)[C@H](C)N(C)C1=O [Compound 1970] ([NMeL]I[NMeA][Aze][NMePhe(4-Me)][Sar][hPhe(3-Cl-4-CF3)][X38][Ac5c][NMeI][NMeD]-NMe2; lactam N-11),0.052 µM
5,CC[C@H](C)[C@@H]1NC(=O)[C@H](CC(C)C)N(C)C(=O)C[C@@H](C(=O)N(C)C)N(C)C(=O)[C@H]([C@@H](C)CC)N(C)C(=O)[C@H](C)NC(=O)[C@H](Cc2ccncc2)N(C)C(=O)[C@H](CCc2ccc(C(F)(F)F)c(Cl)c2)NC(=O)CN(C)C(=O)[C@H](Cc2ccc(C)cc2)N(C)C(=O)[C@@H]2CCN2C(=O)[C@H](C)N(C)C1=O [Compound 1973] ([NMeL]I[NMeA][Aze][NMePhe(4-Me)][Sar][hPhe(3-Cl-4-CF3)][NMe4Pal]A[NMeI][NMeD]-NMe2; lactam N-11),0.0071 µM
6,CC[C@H](C)[C@@H]1NC(=O)[C@H](CC(C)C)N(C)C(=O)C[C@@H](C(=O)N2CCOCC2)N(C)C(=O)[C@H]([C@@H](C)CC)N(C)C(=O)C2(CCCC2)NC(=O)[C@@H]2CCCN2C(=O)[C@H](CCc2ccc(C(F)(F)F)c(Cl)c2)NC(=O)CN(C)C(=O)[C@H](CC2CCCCC2)N(C)C(=O)CN(C)C(=O)CN(C)C1=O [Compound 1979] ([NMeL]I[Sar][Sar][NMeCha][Sar][hPhe(3-Cl-4-CF3)]P[Ac5c][NMeI][NMeD]-Morpholide; lactam N-11),0.00064 µM
7,CC[C@H](C)[C@@H]1NC(=O)[C@H](C)N(C)C(=O)C[C@@H](C(=O)N(C)C)N(C)C(=O)[C@H]([C@@H](C)CC)N(C)C(=O)C2(CCCC2)NC(=O)[C@H](Cc2cccc(C#N)c2)N(C)C(=O)[C@H](CCc2ccc(C(F)(F)F)c(Cl)c2)NC(=O)CN(C)C(=O)[C@H](Cc2ccc(C)cc2)N(C)C(=O)[C@@H]2CCN2C(=O)[C@H](C)N(C)C1=O [Compound 1981] ([NMeA]I[NMeA][Aze][NMePhe(4-Me)][Sar][hPhe(3-Cl-4-CF3)][NMePhe(3-CN)][Ac5c][NMeI][NMeD]-NMe2; lactam N-11),0.0051 µM
8,CC[C@H](C)[C@@H]1NC(=O)[C@H](CC(C)C)N(C)C(=O)C[C@@H](C(=O)N(C)C)N(C)C(=O)[C@H](C2CCCC2)N(C)C(=O)[C@H](C(C)C)NC(=O)[C@H](Cc2ccncc2)N(C)C(=O)[C@H](CCc2ccc(C(F)(F)F)c(Cl)c2)NC(=O)CN(C)C(=O)[C@H](CC2CCCCC2)N(C)C(=O)[C@@H]2CCN2C(=O)[C@H](C)N(C)C1=O [Compound 1982] ([NMeL]I[NMeA][Aze][NMeCha][Sar][hPhe(3-Cl-4-CF3)][NMe4Pal]V[NMeGly(cPent)][NMeD]-NMe2; lactam N-11),0.047 µM
9,"CC[C@H](C)[C@@H]1NC(=O)[C@H](C)N(C)C(=O)C[C@@H](C(=O)N(C)C)N(C)C(=O)[C@H]([C@@H](C)CC)N(C)C(=O)C2(CCCC2)NC(=O)[C@H](Cc2ccc(F)cc2)N(C)C(=O)[C@H](CCc2cc(F)c(C(F)(F)F)c(F)c2)NC(=O)CN(C)C(=O)[C@H](Cc2ccc(C(F)(F)F)cc2)N(C)C(=O)[C@@H]2CCN2C(=O)[C@H](C)N(C)C1=O [Compound 1986] ([NMeA]I[NMeA][Aze][NMePhe(4-CF3)][Sar][hPhe(3,5-F2-4-CF3)][NMePhe(4-F)][Ac5c][NMeI][NMeD]-NMe2; lactam N-11)",0.011 µM
10,CC[C@H](C)[C@@H]1NC(=O)[C@H](CC(C)C)N(C)C(=O)C[C@@H](C(=O)N2CCCCC2)N(C)C(=O)[C@H]([C@@H](C)CC)N(C)C(=O)C2(CCCC2)NC(=O)[C@@H](Cc2ccccc2)N(C)C(=O)[C@H](CCc2ccc(C(F)(F)F)c(Cl)c2)NC(=O)CN(C)C(=O)[C@H](Cc2ccc(C)cc2)N(C)C(=O)[C@@H]2CCN2C(=O)[C@H](C)N(C)C1=O [Compound 1989] ([NMeL]I[NMeA][Aze][NMePhe(4-Me)][Sar][hPhe(3-Cl-4-CF3)][dNMeF][Ac5c][NMeI][NMeD]-Piperidide; lactam N-11),0.46 µM
11,CC[C@H](C)[C@@H]1NC(=O)[C@H](CC(C)C)N(C)C(=O)C[C@@H](C(=O)N(C)C)N(C)C(=O)[C@H]([C@@H](C)CC)N(C)C(=O)C2(CCCC2)NC(=O)[C@H](Cc2cccc(OC)c2)N(C)C(=O)[C@H](CCc2ccc(C(F)(F)F)c(Cl)c2)NC(=O)CN(C)C(=O)[C@H](Cc2ccc(C)cc2)N(C)C(=O)[C@@H]2CCN2C(=O)[C@H](C)N(C)C1=O [Compound 1991] ([NMeL]I[NMeA][Aze][NMePhe(4-Me)][Sar][hPhe(3-Cl-4-CF3)][NMePhe(3-OMe)][Ac5c][NMeI][NMeD]-NMe2; lactam N-11),0.0092 µM
12,"CC[C@H](C)[C@@H]1NC(=O)[C@H](C)N(C)C(=O)C[C@@H](C(=O)N2CCCCC2)N(C)C(=O)[C@H]([C@@H](C)CC)N(C)C(=O)C2(CCCC2)NC(=O)[C@@H](Cc2ccccc2)N(C)C(=O)[C@H](CCc2cc(F)c(C(F)(F)F)c(F)c2)NC(=O)CN(C)C(=O)[C@H](Cc2ccc(C(F)(F)F)cc2)N(C)C(=O)[C@@H]2CCN2C(=O)[C@H](C)N(C)C1=O [Compound 1992] ([NMeA]I[NMeA][Aze][NMePhe(4-CF3)][Sar][hPhe(3,5-F2-4-CF3)][dNMeF][Ac5c][NMeI][NMeD]-Piperidide; lactam N-11)",0.28 µM
13,CC[C@H](C)[C@@H]1NC(=O)[C@H](C)N(C)C(=O)C[C@@H](C(=O)N2CCCCC2)N(C)C(=O)[C@H]([C@@H](C)CC)N(C)C(=O)C2(CCCC2)NC(=O)[C@@H](Cc2ccccc2)N(C)C(=O)[C@H](CCc2ccc(C(F)(F)F)c(Cl)c2)NC(=O)CN(C)C(=O)[C@H](Cc2ccc(C)cc2)N(C)C(=O)[C@@H]2CCN2C(=O)[C@H](C)N(C)C1=O [Compound 1997] ([NMeA]I[NMeA][Aze][NMePhe(4-Me)][Sar][hPhe(3-Cl-4-CF3)][dNMeF][Ac5c][NMeI][NMeD]-Piperidide; lactam N-11),0.22 µM
14,CC[C@H](C)[C@@H]1NC(=O)[C@H](C)N(C)C(=O)C[C@@H](C(=O)N(C)C)N(C)C(=O)[C@H]([C@@H](C)CC)N(C)C(=O)C2(CCCC2)NC(=O)[C@H](Cc2cccc(Br)c2)N(C)C(=O)[C@H](CCc2ccc(C(F)(F)F)c(Cl)c2)NC(=O)CN(C)C(=O)[C@H](Cc2ccc(C)cc2)N(C)C(=O)[C@@H]2CCN2C(=O)[C@H](C)N(C)C1=O [Compound 2000] ([NMeA]I[NMeA][Aze][NMePhe(4-Me)][Sar][hPhe(3-Cl-4-CF3)][NMePhe(3-Br)][Ac5c][NMeI][NMeD]-NMe2; lactam N-11),0.015 µM
15,CCC[C@H]1C(=O)N[C@@H]([C@@H](C)CC)C(=O)N(C)CC(=O)N(C)CC(=O)N(C)[C@@H](CC2CCCCC2)C(=O)N(C)CC(=O)N[C@@H](CCc2ccc(C(F)(F)F)c(Cl)c2)C(=O)N2CCC[C@H]2C(=O)NC2(CCCC2)C(=O)N(C)[C@@H](C2CCCCC2)C(=O)N(C)[C@H](C(=O)N2CCCC2)CC(=O)N1C [Compound 2001] ([NMeNva]I[Sar][Sar][NMeCha][Sar][hPhe(3-Cl-4-CF3)]P[Ac5c][NMeChg][NMeD]-Pyrrolidide; lactam N-11),0.00048 µM
16,CC[C@H](C)[C@@H]1NC(=O)[C@H](CC(C)C)N(C)C(=O)C[C@@H](C(=O)N(C)C)N(C)C(=O)[C@H]([C@@H](C)CC)N(C)C(=O)C2(CCCC2)NC(=O)[C@H](Cc2cccc(C#N)c2)N(C)C(=O)[C@H](CCc2ccc(C(F)(F)F)c(Cl)c2)NC(=O)CN(C)C(=O)[C@H](Cc2ccc(C)cc2)N(C)C(=O)[C@@H]2CCN2C(=O)[C@H](C)N(C)C1=O [Compound 2002] ([NMeL]I[NMeA][Aze][NMePhe(4-Me)][Sar][hPhe(3-Cl-4-CF3)][NMePhe(3-CN)][Ac5c][NMeI][NMeD]-NMe2; lactam N-11),0.003 µM
17,CC[C@H](C)[C@@H]1NC(=O)[C@H](CC(C)C)N(C)C(=O)C[C@H]2CCCN2C(=O)[C@H]([C@@H](C)CC)N(C)C(=O)C2(CCCC2)NC(=O)[C@@H]2CCCN2C(=O)[C@H](CCc2ccc(C(F)(F)F)c(Cl)c2)NC(=O)CN(C)C(=O)[C@H](Cc2ccc(C)cc2)N(C)C(=O)[C@@H]2CCN2C(=O)[C@H](C)N(C)C1=O [Compound 2003] (cyclo([Ac5c][NMeI][d(β3hP)][NMeL]I[NMeA][Aze][NMePhe(4-Me)][Sar][hPhe(3-Cl-4-CF3)]P)),0.0086 µM
